23 compounds from ChEMBL document CHEMBL4177678, “Design, synthesis and in vitro anti-tuberculosis activity of benzo[6,7]cyclohepta[1,2-b]pyridine-1,2,3-triazole derivatives” (Bioorg Med Chem Lett, 2017) can be followed below.

≈ marks a conversion by molar mass, not a printed value.

The test system of data set [1] is Mycobacterium tuberculosis. In words: Antitubercular activity against Mycobacterium tuberculosis H37Rv ATCC 27294 after 28 days by two-fold serial dilution method. In kind it is functional. Conditions: H37Rv ATCC 27294, 672 h.
Data set [2] relates to HEK-293T. Nature of the data set: Cytotoxicity against human HEK293T cells assessed as reduction in cell viability at 50 ug/ml after 24 hrs by MTT assay. Type of data set: cell-based. (In general: Tetrazolium assays rely on reduction of a dye to a coloured formazan, in cell work by metabolically active cells.)

By MIC is commonly meant the lowest concentration found to suppress growth. Higher therefore signals a less susceptible organism. For `Cc1cc2c(cc1C)-c1nc(C)c(Cn3cc(-c4ccccc4)nn3)cc1CCC2`, in data set [1], the MIC amounted to 25 µg/mL (≈ 63.4 µM).

Take `Cc1nc2c(cc1Cn1cc(-c3ccsc3)nn1)CCCc1ccccc1-2`: the MIC in data set [1] stood at 12.5 µg/mL (≈ 33.6 µM). This MIC is about 2-fold lower than that of the compound before.

Consider `CCCCCc1ccc(-c2cn(Cc3cc4c(nc3C)-c3ccccc3CCC4)nn2)cc1`, for which, in data set [1], the minimum inhibitory concentration (MIC) worked out at 12.5 µg/mL (≈ 28.6 µM).

As to `CO[C@H]1/C=C/O[C@@]2(C)Oc3c(C)c(O)c4c(O)c(c(/C=N/N5CCN(C)CC5)c(O)c4c3C2=O)NC(=O)/C(C)=C\C=C\[C@H](C)[C@H](O)[C@@H](C)[C@@H](O)[C@@H](C)[C@H](OC(C)=O)[C@@H]1C` [RIFAMPIN], it took 0.2 µg/mL (≈ 0.243 µM) to inhibit growth in data set [1] (MIC). Against the preceding compound, the MIC is about 62-fold lower.

In data set [1], `CC[C@@H](CO)NCCN[C@@H](CC)CO` [ETHAMBUTOL] yielded an MIC of 3.13 µg/mL (≈ 15.3 µM).

The compound `CCCCCc1ccc(-c2cn(Cc3cc4c(nc3C)-c3cc(C)c(C)cc3CCC4)nn2)cc1` showed an MIC in data set [1] of over 25 µg/mL.

With `COc1ccc2cc(-c3cn(Cc4cc5c(nc4C)-c4ccccc4CCC5)nn3)ccc2c1`, the minimal inhibitory concentration (MIC) in data set [1] came to 25 µg/mL (≈ 56 µM).

Regarding `Cc1ccc(-c2cn(Cc3cc4c(nc3C)-c3cc(C)c(C)cc3CCC4)nn2)cc1`, inhibition of growth in data set [1] (MIC) required 12.5 µg/mL (≈ 30.6 µM).

As for `COc1ccc2cc(-c3cn(Cc4cc5c(nc4C)-c4cc(C)c(C)cc4CCC5)nn3)ccc2c1`, the MIC in data set [1] was found to be 25 µg/mL (≈ 52.7 µM).

Turning to `CCCCCCc1cn(Cc2cc3c(nc2C)-c2cc(C)c(C)cc2CCC3)nn1`, the MIC in data set [1] was found to be 12.5 µg/mL (≈ 31 µM). This MIC is about 2-fold lower than that of the compound before.

In turn, `COc1cccc(-c2cn(Cc3cc4c(nc3C)-c3cc(C)c(C)cc3CCC4)nn2)c1` had an MIC in data set [1] of 25 µg/mL (≈ 58.9 µM). This MIC lies about 2-fold higher than the previous one.

Turning to `CCCCCCc1cn(Cc2cc3c(nc2C)-c2ccccc2CCC3)nn1`, the Activity entry in data set [2] is recorded as “Non-Toxic”. Besides, 1.56 µg/mL (≈ 4.17 µM) was the least that counted as inhibitory in data set [1] (MIC).

As to `COc1cccc(-c2cn(Cc3cc4c(nc3C)-c3ccccc3CCC4)nn2)c1`, the minimum inhibitory concentration (MIC) in data set [1] is over 25 µg/mL.

`Cc1nc2c(cc1Cn1cc(-c3cc4ccccc4c4ccccc34)nn1)CCCc1ccccc1-2` registered an MIC in data set [1] of over 25 µg/mL.

Consider `Cc1cc2c(cc1C)-c1nc(C)c(Cn3cc(-c4ccsc4)nn3)cc1CCC2`, for which the minimal inhibitory concentration (MIC) in data set [1] turned out to be 12.5 µg/mL (≈ 31.2 µM).

As for `NNC(=O)c1ccncc1` [ISONIAZID], in data set [1], the MIC was 0.1 µg/mL (≈ 0.729 µM). Compared with the last compound, the MIC is about 120-fold lower.

As to `Cc1cc2c(cc1C)-c1nc(C)c(Cn3cc(-c4cccnc4)nn3)cc1CCC2`, the MIC in data set [1] came out at 6.25 µg/mL (≈ 15.8 µM).

The compound `Cc1ccc(-c2cn(Cc3cc4c(nc3C)-c3ccccc3CCC4)nn2)cc1` had an MIC in data set [1] of 12.5 µg/mL (≈ 32.9 µM).

`Cc1nc2c(cc1Cn1cc(-c3cccnc3)nn1)CCCc1ccccc1-2` showed an MIC in data set [1] of 6.25 µg/mL (≈ 17 µM).

As to `Cc1cc2c(cc1C)-c1nc(C)c(Cn3cc(-c4cc5ccccc5c5ccccc45)nn3)cc1CCC2`, the Activity entry in data set [2] is on record as “Non-Toxic”. In data set [1], the MIC was 1.56 µg/mL (≈ 3.15 µM).

In data set [1], `Cc1nc2c(cc1Cn1cc(-c3ccccn3)nn1)CCCc1ccccc1-2` had an MIC of 12.5 µg/mL (≈ 34 µM).

In data set [1], `Cc1nc2c(cc1Cn1cc(-c3ccccc3)nn1)CCCc1ccccc1-2` came in with an MIC of 25 µg/mL (≈ 68.2 µM).

`Cc1cc2c(cc1C)-c1nc(C)c(Cn3cc(-c4ccccn4)nn3)cc1CCC2`: in data set [1], the MIC came out at 25 µg/mL (≈ 63.2 µM).
